Test results published in article PMC10562414, “GLP-1R signaling neighborhoods associate with the susceptibility to adverse drug reactions of incretin mimetics” (Nature Communications, 2023).

Legend:
GLP-1R [1] = molecular target: T1, GLP-1R (Homo sapiens, UniProt P43220); test: ebBRET pathway activation (15 pathways) at the Golgi apparatus (tdrGFP-Giantin); assay type: cell-based; settings: for Efficacy (normalized) / Potency (logEC50) / Emax: Golgi apparatus
GLP-1R [2] = molecular target: T1, GLP-1R; test: ebBRET pathway activation (15 pathways), Supplementary Fig. 14; compartment not given; assay type: cell-based

T1 sequence (P43220 24-463): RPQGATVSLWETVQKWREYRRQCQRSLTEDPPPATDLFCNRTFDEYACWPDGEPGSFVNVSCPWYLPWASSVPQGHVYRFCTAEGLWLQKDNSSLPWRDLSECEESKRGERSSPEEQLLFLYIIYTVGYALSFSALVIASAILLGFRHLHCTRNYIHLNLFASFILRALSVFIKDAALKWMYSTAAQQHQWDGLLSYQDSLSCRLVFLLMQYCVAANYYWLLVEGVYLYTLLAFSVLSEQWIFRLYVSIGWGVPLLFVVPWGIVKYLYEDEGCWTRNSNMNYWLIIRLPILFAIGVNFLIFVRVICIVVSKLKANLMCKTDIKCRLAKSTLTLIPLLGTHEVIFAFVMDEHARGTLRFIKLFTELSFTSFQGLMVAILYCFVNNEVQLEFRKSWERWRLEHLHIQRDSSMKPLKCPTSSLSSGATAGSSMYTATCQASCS

N#Cc1ccc(COc2cccc(C3CCN(Cc4nc5ccc(C(=O)O)cc5n4C[C@@H]4CCO4)CC3)n2)c(F)c1 [Danuglipron]
Efficacy (normalized) (GLP-1R [1]; GRK2/Gβγ): 0 | Potency (logEC50) (GLP-1R [1]; GRK2/Gβγ): 0 | Emax (GLP-1R [1]; GRK/Gβγ): 0 | Efficacy (normalized) (GLP-1R [1]; Gα11): 0 | Emax (GLP-1R [1]; Gα11): 0 | Potency (logEC50) (GLP-1R [1]; Gα11): 0 | Efficacy (normalized) (GLP-1R [1]; Gα12): 0 | Emax (GLP-1R [1]; Gα12): 0 | Potency (logEC50) (GLP-1R [1]; Gα12): 0 | Efficacy (normalized) (GLP-1R [1]; Gα13): 0 | Emax (GLP-1R [1]; Gα13): 0 | Potency (logEC50) (GLP-1R [1]; Gα13): 0 | Efficacy (normalized) (GLP-1R [1]; Gα14): 0 | Emax (GLP-1R [1]; Gα14): 0 | Potency (logEC50) (GLP-1R [1]; Gα14): 0 | Efficacy (normalized) (GLP-1R [1]; Gα15): 0 | Emax (GLP-1R [1]; Gα15): 0 | Potency (logEC50) (GLP-1R [1]; Gα15): 0 | Efficacy (normalized) (GLP-1R [1]; Gαi1): 0 | Emax (GLP-1R [1]; Gαi1): 0 | Potency (logEC50) (GLP-1R [1]; Gαi1): 0 | Efficacy (normalized) (GLP-1R [1]; Gαi2): 0 | Emax (GLP-1R [1]; Gαi2): 0 | Potency (logEC50) (GLP-1R [1]; Gαi2): 0 | Efficacy (normalized) (GLP-1R [1]; Gαi3): 0 | Emax (GLP-1R [1]; Gαi3): 0 | Potency (logEC50) (GLP-1R [1]; Gαi3): 0 | Efficacy (normalized) (GLP-1R [1]; GαoA): 0 | Emax (GLP-1R [1]; GαoA): 0 | Potency (logEC50) (GLP-1R [1]; GαoA): 0 | Efficacy (normalized) (GLP-1R [1]; GαoB): 0 | Emax (GLP-1R [1]; GαoB): 0 | Potency (logEC50) (GLP-1R [1]; GαoB): 0 | Efficacy (normalized) (GLP-1R [1]; Gαq): 0 | Emax (GLP-1R [1]; Gαq): 0 | Potency (logEC50) (GLP-1R [1]; Gαq): 0 | Efficacy (normalized) (GLP-1R [1]; Gαs): 0.8077 | Emax (GLP-1R [1]; Gαs): 0.9498 | Potency (logEC50) (GLP-1R [1]; Gαs): 0.7638 | Efficacy (normalized) (GLP-1R [1]; Gαz): 1 | Emax (GLP-1R [1]; Gαz): 0.06827 | Potency (logEC50) (GLP-1R [1]; Gαz): 0.517 | Emax (GLP-1R [1]; βARR): 0.7121 | Efficacy (normalized) (GLP-1R [1]; βARR2): 0.4942 | Potency (logEC50) (GLP-1R [1]; βARR2): 0.4339 | mGs recruitment at the Golgi apparatus, in words (GLP-1R [1]; Rluc8-mGs, tdrGFP-Giantin, 60 min, n = 3): induced a strong response at the Golgi apparatus | Efficacy (normalized), GRK2/Gβγ (GLP-1R [2]; GRK2/Gβγ, Supplementary Fig. 14a, normalized): 0 | Efficacy (normalized), Gα11 (GLP-1R [2]; Gα11, Supplementary Fig. 14a, normalized): 0 | Potency (logEC50), Gα11 (GLP-1R [2]; Gα11, Supplementary Fig. 14b): 0 | Efficacy (normalized), Gα12 (GLP-1R [2]; Gα12, Supplementary Fig. 14a, normalized): 0 | Potency (logEC50), Gα12 (GLP-1R [2]; Gα12, Supplementary Fig. 14b): 0 | Efficacy (normalized), Gα13 (GLP-1R [2]; Gα13, Supplementary Fig. 14a, normalized): 0 | Potency (logEC50), Gα13 (GLP-1R [2]; Gα13, Supplementary Fig. 14b): 0 | Efficacy (normalized), Gα14 (GLP-1R [2]; Gα14, Supplementary Fig. 14a, normalized): 0 | Potency (logEC50), Gα14 (GLP-1R [2]; Gα14, Supplementary Fig. 14b): 0 | Efficacy (normalized), Gα15 (GLP-1R [2]; Gα15, Supplementary Fig. 14a, normalized): 0 | Potency (logEC50), Gα15 (GLP-1R [2]; Gα15, Supplementary Fig. 14b): 0 | Efficacy (normalized), Gαi1 (GLP-1R [2]; Gαi1, Supplementary Fig. 14a, normalized): 0 | Potency (logEC50), Gαi1 (GLP-1R [2]; Gαi1, Supplementary Fig. 14b): 0 | Efficacy (normalized), Gαi2 (GLP-1R [2]; Gαi2, Supplementary Fig. 14a, normalized): 0 | Potency (logEC50), Gαi2 (GLP-1R [2]; Gαi2, Supplementary Fig. 14b): 0 | Efficacy (normalized), Gαi3 (GLP-1R [2]; Gαi3, Supplementary Fig. 14a, normalized): 0 | Potency (logEC50), Gαi3 (GLP-1R [2]; Gαi3, Supplementary Fig. 14b): 0 | Efficacy (normalized), GαoA (GLP-1R [2]; GαoA, Supplementary Fig. 14a, normalized): 0 | Potency (logEC50), GαoA (GLP-1R [2]; GαoA, Supplementary Fig. 14b): 0 | Efficacy (normalized), GαoB (GLP-1R [2]; GαoB, Supplementary Fig. 14a, normalized): 0 | Potency (logEC50), GαoB (GLP-1R [2]; GαoB, Supplementary Fig. 14b): 0 | Efficacy (normalized), Gαq (GLP-1R [2]; Gαq, Supplementary Fig. 14a, normalized): 0 | Potency (logEC50), Gαq (GLP-1R [2]; Gαq, Supplementary Fig. 14b): 0 | Efficacy (normalized), Gαs (GLP-1R [2]; Gαs, Supplementary Fig. 14a, normalized): 0.8077 | Potency (logEC50), Gαs (GLP-1R [2]; Gαs, Supplementary Fig. 14b): 0.7638 | Efficacy (normalized), Gαz (GLP-1R [2]; Gαz, Supplementary Fig. 14a, normalized): 1 | Potency (logEC50), Gαz (GLP-1R [2]; Gαz, Supplementary Fig. 14b): 0.517 | Efficacy (normalized), βARR2 (GLP-1R [2]; βARR2, Supplementary Fig. 14a, normalized): 0.4942 | Potency (logEC50), βARR2 (GLP-1R [2]; βARR2, Supplementary Fig. 14b): 0.4339
